Assay results: PMC7767178 (International Journal of Molecular Sciences, 2020)
Read-outs that look alike come from different tables or passages of the source. Positions of bridges follow the written chain, without caps; N, C: chain ends. Residues, ends and D or L forms follow the SMILES beside them.

Columns and labels:
[1] = system: A. veronii ACCC61732 genomic DNA; assay: CD spectra of genomic DNA with peptides; assay type: binding; details: mass ratios 2.5 and 10.0, 10 min, room temperature
Method: CD spectra were performed to examine the secondary structure of genomic DNA from A. veronii ACCC61732 after incubation with peptides. […] The mixtures were loaded into a cuvette of 1.0-mm path length and scanned from 190 to 330 nm at 25 °C using a Pistar π-180 CD spectrometer (Applied Photophysics Ltd., Surry, UK).

A. veronii ACCC61732 [2] = assay: Inner membrane permeability, PI staining, flow cytometry; assay type: cell-based
Method: To analyze effects of peptides on the inner membrane, A. veronii ACCC61732 cells were cultured to mid-log phase at 37 °C in MHB medium, washed thrice with PBS, and resuspended in the PBS buffer to 1 × 10^8 CFU/mL. […] After fixation with PI, the samples were detected by a fluorescent inverted microscope and FACS Calibur Flow Cytometer (BD, San Jose, CA, USA), respectively. Cell Quest Pro software (BD, San Jose, CA, USA) was used for the data analysis.

A. veronii ACCC61732 [3] = assay: microbe, parasite or virus in culture; assay type: cell-based
Description: The checkerboard microtiter assay was used to determine the combinations of peptides with different antibiotics (including quinolone, rifamycin, peptide antibiotics, aminoglycoside, tetracycline, and chloramphenicol). […] The fractional inhibitory concentration (FIC) was used to calculate the combination effects using the following formula: FIC index (FICI) = MIC(peptide in combination)/MIC(peptide alone) + MIC(antibiotic in combination)/MIC(antibiotic alone). FICI ≤ 0.5 means synergistic, 0.5 < FICI ≤ 1 means additive action, 1 < FICI ≤ 4 means indifference, and FICI > 4 means antagonism.

S. hyicus 437-2 = assay type: cell-based
[4] = system: Pseudomonas aeruginosa CICC21630
Method: (§1) Briefly, the tested strains including Gram-negative bacteria, Gram-positive bacteria, and fungi were cultured to the logarithmic growth phase, diluted to 10^5 CFU/mL, and added into 96-well plates (90 μL/well). Two-fold serial dilutions of peptides or antibiotics dissolved in PBS were added to each well (10 μL/well). […] All experiments were repeated three times.

S. hyicus NCTC10350 = system: S. hyicus NCTC10350
Method: as §1

A. veronii CL0901 = system: A. veronii CL0901
Method: as §1

[5] = system: Aeromonas veronii ACCC61732
Method: as §1

S. aureus ATCC546 = system: S. aureus ATCC546
Method: as §1

S. aureus ATCC25923 = system: S. aureus ATCC25923
Method: as §1

in vitro = details: mouse, 25% mouse serum
A. veronii ACCC61732 [6] = assay: ATP release, BacTiter-Glo; assay type: cell-based; details: 8×, 16× and 32× MIC, 60 min, 37 °C, luminescence, n = 3
Method: The assay was performed for three biological replicates at 37 °C, with luminescence recorded using a Tecan Infinite M1000 Pro plate reader. The fold reduction of ATP was calculated as: Fold reduction ATP = 1 − (Ltreat − Lmedia/Lcontrol − Lmedia), where Ltreat is the luminescence of treated cells, Lmedia is the luminescence of MHB without cells, and Lcontrol is the luminescence of untreated cells. Resultant graphs show mean (n = 3) and SEM for each data point, prepared in Prism 7 [46].

[7] = system: A. veronii ACCC61732 biofilms; assay: Mouse model of catheter-associated biofilm infection, bacteria in catheter; assay type: in vivo, ICR mice; details: 5 μmol/kg peptide or CIP 24 h after catheter implantation, catheters collected after seven days, six mice per group
Method: Briefly, the catheter was cut into 1 cm segments; each piece was sterilized with 70% ethanol and then dried by air. Bacterial biofilms were developed on the catheter by placing individual segments into tubes containing 1.0 mL of a cell suspension (1 × 10^8 CFU/mL) in TSB. After incubation for 24 h at 37 °C, colonized catheters were recovered aseptically and rinsed with PBS to remove unbound bacteria. ICR female mice (20 ± 5 g) were anesthetized with isoflurane; the flanks were shaved and the skin was cleansed with alcohol. […] The incision was then covered with intact skin and closed with surgical suture line and the skin was disinfected. […] The untreated mice were used as the negative control and the mice with sterile catheter were used as the blank control. The mice were anesthetized and sacrificed after seven days. The catheters in the back of the mice were collected and thoroughly shaken in sterile PBS.

IL-10 = assay: Serum cytokine, ELISA, peritonitis model; assay type: in vivo; details: 24 h after treatment, range over mice
Method: (§2) Sera and organs (livers, kidneys, spleens, and lungs) were collected from the mice at 24 h post-treatment. The organs were homogenized in sterile PBS to evaluate bacterial translocation by colony counting. The levels of cytokines (TNF-α, IL-1β, IL-6, and IL-10) in sera were detected using the ELISA kits.

[8] = system: A. veronii ACCC61732 mature biofilms; assay: Eradication of mature biofilms, crystal violet; assay type: cell-based; details: 16× MIC, 24 h on 24 h biofilm
Method: A. veronii ACCC61732 cells (1 × 10^8 CFU/mL) were cultured in TSB medium in the 96-well plates at 37 °C for 24 h.

MDR A. veronii ACCC61732 = assay: Mouse peritonitis model, survival; assay type: in vivo, ICR mice; details: seven days, six mice
Method: […]. The mice injected with only bacteria or saline served as the negative and blank control. The mouse survival was recorded daily for seven days.

IL-1β = assay: Serum cytokine, ELISA, peritonitis model; assay type: in vivo; details: 5 μmol/kg, 24 h after treatment, range over mice
Method: as §2

IL-6 = assay: Serum cytokine, ELISA, peritonitis model; assay type: in vivo; details: 5 μmol/kg, 24 h after treatment, range over mice
Method: as §2

Escherichia coli = assay: MIC, range over strains; assay type: cell-based; details: range over the strains of Table 2
Description: (§3) All experiments were repeated three times.

A. veronii = assay: MIC, range over strains; assay type: cell-based; details: range over the strains of Table 2
Description: as §3

[9] = S. hyicus 437-2 (clinical isolate, pig farm), broth dilution, 37 °C, 16–18 h, three experiments
[10] = S. hyicus NCTC10350, broth dilution, 37 °C, 16–18 h, three experiments
[11] = A. veronii CL0901, broth dilution, 37 °C, 16–18 h, three experiments
[12] = Aeromonas veronii ACCC61732 (MDR), broth dilution, 37 °C, 16–18 h, three experiments
[13] = S. aureus ATCC546, broth dilution, 37 °C, 16–18 h, three experiments
[14] = S. aureus ATCC25923, broth dilution, 37 °C, 16–18 h, three experiments
[15] = Pseudomonas aeruginosa CICC21630, broth dilution, 37 °C, 16–18 h, three experiments

Row | Structure (SMILES) | effect on CD spectrum of genomic DNA [1] | Permeability (PI-positive cells) (A. veronii ACCC61732 [2]; 1× MIC, 0.5 h) [%] | Permeability (PI-positive cells) (A. veronii ACCC61732 [2]; 1× MIC, 2 h) [%] | Permeability (PI-positive cells) (A. veronii ACCC61732 [2]; 2× MIC, 0.5 h) [%] | Permeability (PI-positive cells) (A. veronii ACCC61732 [2]; 2× MIC, 2 h) [%] | Permeability (PI-positive cells) (A. veronii ACCC61732 [2]; 4× MIC, 0.5 h) [%] | Permeability (PI-positive cells) (A. veronii ACCC61732 [2]; 4× MIC, 2 h) [%] | interaction with polymyxin B (PMB) (A. veronii ACCC61732 [3]; checkerboard, by FICI) | MIC (S. hyicus 437-2; [9]) [mg/L] | MIC (S. hyicus NCTC10350; NCTC10350) [µM] | MIC (A. veronii CL0901) [µM] | MIC (A. veronii CL0901; [11]) [mg/L] | MIC [5, 12] [mg/L] | MIC (S. aureus ATCC546; [13]) [mg/L] | MIC (S. aureus ATCC25923; [14]) [mg/L] | remaining at 2 h (in vitro) [%] | remaining at 4.5 h (in vitro) [%] | remaining at 6 h (in vitro) [%] | ATP release (A. veronii ACCC61732 [6]) | decrease of bacterial cells in the catheter [7] [%] | further results
1 | CC(C)[C@@H]1NC(=O)CNC(=O)[C@H](CC(N)=O)NC(=O)[C@H](CCCNC(=N)N)NC(=O)[C@H](Cc2ccc(O)cc2)NC(=O)[C@H](C(C)C)NC(=O)[C@@H](NC(=O)[C@@H](NC(=O)[C@H](CC(N)=O)NC(=O)[C@H](Cc2c[nH]c3ccccc23)NC(=O)[C@H](C)NC(=O)[C@H](Cc2ccccc2)NC(=O)[C@H](CCCN)N=C(N(C)C)N(C)C)C(C)C)CSSC[C@@H](C(=O)N[C@@H](Cc2c[nH]cn2)C(=O)N[C@@H](CCCNC(=N)N)C(=O)N[C@@H](CCCNC(=N)N)C(=O)N[C@@H](C)C(=O)N[C@@H](CC(N)=O)C(N)=O)NC(=O)[C@H](C(C)C)NC(=O)[C@H](CCCNC(=N)N)NC1=O (stereo in doubt) [Guo-N6NH2] | do not affect the double helix of genomic DNA | 0.63 | 4.96 | 0.55 | 1.91 | 0 | 2.16 | synergic effect | 32 | 24.32 | 6.08 | 16 | 8 | 16 | 32 | 84 | 56.8 | 44.2 | 66.23–92.09% | – | MICa, MIC of the peptide used alone (A. veronii ACCC61732 [3]): 8 mg/L; MIC (S. hyicus 437-2): 12.16 µM; MIC ([4]; CICC21630): >24.3 µM; MIC (S. hyicus NCTC10350; [10]): 64 mg/L; MIC [5]: 3.04 µM; MIC, control ([5]; Table S6 control: absence of temperature, acid and alkali, salt and enzyme condition): 8 mg/L; MIC (S. aureus ATCC546; ATCC546): 6.08 µM; MIC (S. aureus ATCC25923; ATCC25923): 12.16 µM
2 | O=C(O)c1cn(C2CC2)c2cc(N3CCNCC3)c(F)cc2c1=O [CIP, ciprofloxacin, reference compound] | – | – | – | – | – | – | – | – | – | – | – | – | – | – | – | – | – | – | 7.06–47.60% | 28.72 | serum level of IL-10 (IL-10; 1 μmol/kg): 10.1 to 16.41 pg/mL; MIC (A. veronii ACCC61732 [3]; Aeromonas veronii, ACCC61732, read-out: MICa, MIC of the antibiotic used alone): 0.125 mg/L; inhibition of mature biofilms [8]: 89.87%; survival rate of mice (MDR A. veronii ACCC61732; 1 μmol/kg i.p. 0.5 h after infection): 83.33%
3 | CC(C)[C@@H]1NC(=O)CNC(=O)[C@H](CC(N)=O)NC(=O)[C@H](CCCNC(=N)N)NC(=O)[C@H](Cc2ccc(O)cc2)NC(=O)[C@H](C(C)C)NC(=O)[C@@H](NC(=O)[C@@H](NC(=O)[C@H](CC(N)=O)NC(=O)[C@H](Cc2c[nH]c3ccccc23)NC(=O)[C@H](C)NC(=O)[C@H](Cc2ccccc2)NC(=O)CN)C(C)C)CSSC[C@@H](C(=O)N[C@@H](Cc2cnc[nH]2)C(=O)N[C@@H](CCCNC(=N)N)C(=O)N[C@@H](CCCNC(=N)N)C(=O)N[C@@H](C)C(=O)N[C@@H](CC(N)=O)C(N)=O)NC(=O)[C@H](C(C)C)NC(=O)[C@H](CCCNC(=N)N)NC1=O [N6NH2] | do not affect the double helix of genomic DNA | 0 | 1.39 | 0 | 1.49 | – | – | synergic effect | 32 | 12.9 | 6.46 | 16 | 4 | 16 | 32 | 85.9 | 58 | 41.9 | 56.07–90.00% | 41.48 | serum level of IL-10 (IL-10; 5 μmol/kg): 17.02 to 20.87 pg/mL; serum level of IL-1β (IL-1β): 6.06 to 10.82 pg/mL; serum level of IL-6 (IL-6): 47.22 to 108.59 pg/mL; interaction with rifampicin, streptomycin sulfate, doxycycline hyclate, and kanamycin sulfate (A. veronii ACCC61732 [3]; checkerboard, by FICI): additive effects; MIC (S. hyicus 437-2): 12.9 µM; MIC ([4]; CICC21630): 25.8 µM; MIC [4, 15]: 64 mg/L; MIC (S. hyicus NCTC10350; [10]): 32 mg/L; MIC (S. aureus ATCC546; ATCC546): 6.46 µM; MIC (S. aureus ATCC25923; ATCC25923): 12.9 µM
4 | CC(C)[C@@H]1NC(=O)CNC(=O)[C@H](CC(N)=O)NC(=O)[C@H](CCCNC(=N)N)NC(=O)[C@H](Cc2ccc(O)cc2)NC(=O)[C@H](C(C)C)NC(=O)[C@@H](NC(=O)[C@@H](NC(=O)[C@H](CC(N)=O)NC(=O)[C@H](Cc2c[nH]c3ccccc23)NC(=O)[C@H](C)NC(=O)[C@H](Cc2ccccc2)NC(=O)CN)C(C)C)CSSC[C@@H](C(=O)N[C@@H](Cc2c[nH]cn2)C(=O)N[C@@H](CCCNC(=N)N)C(=O)N2CCC[C@H]2C(=O)N[C@@H](C)C(=O)N[C@@H](CC(N)=O)C(N)=O)NC(=O)[C@H](C(C)C)NC(=O)[C@H](CCCNC(=N)N)NC1=O [N6PNH2] (H-GFAWNVCVYRNGVRVCHRPAN-NH2; disulfide 7-16 (inferred)) | do not affect the double helix of genomic DNA | 0 | 2.11 | 0.68 | 1.35 | 0 | 1.23 | – | >64 | >52.98 | 26.49 | 64 | 16 | >64 | >64 | 95.2 | 84.9 | 79.9 | 77.39–90.34% | 54.09 | serum level of IL-10 (IL-10; 5 μmol/kg): no discrepancy of IL-10 levels; MIC values against Escherichia coli (Escherichia coli): 1.66 to 3.31 µM; MIC values against A. veronii (A. veronii): 6.62 to 26.49 µM; inhibition of mature biofilms [8]: 97.16%; MIC [4, 15]: >64 mg/L; MIC [5]: 6.62 µM; survival rate of mice (MDR A. veronii ACCC61732; 5 μmol/kg i.p. 0.5 h after infection): 50%
